The record followed here is ChEMBL document CHEMBL4265923, “In vitro and in vivo characterization of a novel, highly potent p53-MDM2 inhibitor” (Bioorg Med Chem Lett, 2018).

A word on the GI50: it is the concentration that inhibits growth by half. As a reminder, the half-life is the time needed for the level to fall by half in the phase considered. Broadly, the Tmax is the time at which the peak concentration occurs. The bioavailability is the share of a dose that reaches the circulation, judged against a reference dose that is usually intravenous. A word on the clearance: it is a measure of how efficiently the substance is removed, as volume per time.

Data set [1] in a line: Intrinsic clearance in mouse liver microsomes. Type of data set: ADME, microsome. A general note: Liver microsomes are vesicles of endoplasmic reticulum, rich in cytochrome P450 enzymes.
Data set [2] is described as follows: Intrinsic clearance in human liver microsomes. It counts as ADME, microsome.
Data set [3] in a line: Intrinsic clearance in rat liver microsomes. Type of data set: ADME, microsome.
The subject of data set [4] is SJSA-1. As to the kind of experiment: Antiproliferative activity against human SJSA1 cells after 72 hrs by YO-PRO-1 iodide staining-based assay. The note with it: SJSA-1, 72 h. It counts as functional.
Data set [5] can be described thus: Half life in rat liver microsomes. It counts as ADME, microsome.
A short description of data set [6]: Fraction absorbed of compound by PAMPA. It counts as ADME. In general terms: PAMPA measures passive passage across an artificial lipid membrane.
Data set [7] deals with Rattus norvegicus. As to the kind of experiment: Toxicity in nude rat xenografted with human SJSA1 cells assessed as increase in body weight at 1 to 5 mg/kg, po qd for 14 days. It counts as organism-based. Particulars: in vivo, 336 h.
For data set [8], the system named is Rattus norvegicus. As to the kind of experiment: Dose normalized AUC in Sprague-Dawley rat at 3 mg/kg, po. Type of data set: ADME, organism-based. The note with it: in vivo.
Data set [9] deals with Rattus norvegicus. As to the kind of experiment: Upregulation of MDM2 mRNA expression level in po dosed nude rat tumor xenografted with human SJSA1 cells by RT-PCR method.
For data set [10], the system named is Rattus norvegicus. Description: Upregulation of p21 mRNA expression level in po dosed nude rat tumor xenografted with human SJSA1 cells by RT-PCR method. (Xenograft models place foreign cells or tissue in a host animal.)
Data set [11] concerns Rattus norvegicus. As to the kind of experiment: Dose normalized Cmax in Sprague-Dawley rat at 3 mg/kg, po. Type of data set: ADME, organism-based. The note with it: in vivo.
In data set [12] the test system is Rattus norvegicus. Description: Upregulation of PUMA mRNA expression level in po dosed nude rat tumor xenografted with human SJSA1 cells by RT-PCR method.
For data set [13], the system named is SJSA-1. Description: Antitumor activity against human SJSA1 cells xenografted in nude rat assessed as tumor regression at 3 mg/kg, po qd for 14 days. Type of data set: functional.
A short description of data set [14]: Intrinsic clearance in dog liver microsomes. Type of data set: ADME, Canis lupus familiaris, microsome.
Data set [15] can be described thus: Intrinsic clearance in monkey liver microsomes. Particulars: rhesus monkey. It counts as ADME, Macaca mulatta, microsome.
Data set [16] in a line: Half life in monkey liver microsomes. It counts as ADME, Macaca mulatta, microsome. Particulars: rhesus monkey.
Data set [17] is described as follows: Half life in mouse liver microsomes. Type of data set: ADME, microsome.
The test system of data set [18] is SJSA-1. Description: Antitumor activity against human SJSA1 cells xenografted in nude rat assessed as tumor regression at 5 mg/kg, po qd for 14 days. It counts as functional.
In data set [19] the test system is SJSA-1. As to the kind of experiment: Antitumor activity against human SJSA1 cells xenografted in nude rat assessed as reduction in tumor volume at 1 mg/kg, po qd for 14 days. It counts as functional. Also noted: scale not given: the % may be the effect or the level left.
Data set [20] is described as follows: Tmax in Sprague-Dawley rat at 3 mg/kg, po. It counts as ADME, organism-based. Particulars: in vivo.
Data set [21] can be described thus: Half life in human liver microsomes. It counts as ADME, microsome.
The subject of data set [22] is Rattus norvegicus. As to the kind of experiment: Dose normalized AUC in Sprague-Dawley rat at 1 mg/kg, iv. Type of data set: ADME, organism-based. Particulars: in vivo.
Data set [23] in a line: Half life in Sprague-Dawley rat at 1 mg/kg, iv. It counts as ADME, organism-based. Particulars: in vivo.
Data set [24] in a line: Oral bioavailability in Sprague-Dawley rat at 3 mg/kg. It counts as ADME, organism-based. The note with it: in vivo.
The test system of data set [25] is SJSA-1. As to the kind of experiment: Antitumor activity against human SJSA1 cells xenografted in po dosed nude rat assessed as tumor growth inhibition administered once daily for 14 days. Type of data set: functional, organism-based.
Data set [26] in a line: Tmax in nude rat xenografted with human SJSA1 cells at 1 to 5 mg/kg, po qd. Type of data set: ADME, organism-based. The note with it: in vivo.
The nature of data set [27]: Half life in dog liver microsomes. It counts as ADME, Canis lupus familiaris, microsome.
Data set [28] in a line: Volume of distribution at steady state in Sprague-Dawley rat at 1 mg/kg, iv. It counts as ADME, organism-based. Particulars: in vivo, read-out: Vdss.
Data set [29] in a line: Clearance in Sprague-Dawley rat at 1 mg/kg, iv. It counts as ADME, organism-based. Particulars: in vivo.

`COc1ccccc1-n1nc2c(c1C(C)C)[C@H](c1ccc(Cl)cc1C)N(c1cc(Cl)ccc1C)C2=O`: the CLH in [1] amounted to 495 µL/min/mg; in [2] it was 115 µL/min/mg. In addition, in [3], the CLint worked out at 385 µL/min/mg.

`COc1ccccc1-c1nc2c(n1C(C)C)[C@H](c1ccc(Cl)cc1C)N(c1cc(Cl)ccc1C)C2=O` showed a concentration for 50% growth inhibition (GI50) in data set [4] of 62 to 64 nM. For the same compound, the half-life in data set [5] stood at 3.6 min. The CLint in data set [3] worked out at 385 µL/min/mg.

Turning to `COc1ccc(F)cc1-c1nc2c(n1C(C)C)C(c1ccc(Cl)cc1C)N(c1cc(Cl)ccc1C)C2=O` (racemic), in [4], it took 228 nM to inhibit growth by half (GI50). In [5], this compound registered a half-life of 3.3 min. The same compound returned a CLint in [3] of 460 µL/min/mg.

`COc1ncc(-c2nc3c(n2C(C)C)C(c2ccc(Cl)cc2C)N(c2cc(Cl)ccc2C)C3=O)c(OC)n1` (racemic): the concentration for 50% growth inhibition (GI50) in data set [4] amounted to 26 nM. This compound also came in with a half-life in data set [5] of 30 min. For the same compound, the CLint in [3] stood at 47 µL/min/mg.

`COc1ncncc1-c1nc2c(n1C(C)C)C(c1ccc(Cl)cc1C)N(c1cc(Cl)ccc1C)C2=O` (racemic): in data set [4], the concentration for 50% growth inhibition (GI50) was 111 nM. For the same compound, in data set [5], the half-life came to 8 min. The same compound registered a CLint in data set [3] of 178 µL/min/mg.

Take `COc1ncc(-c2nc3c(n2C(C)C)[C@H](c2ccc(Cl)cc2C)N(c2cc(Cl)ccc2C)C3=O)c(OC)n1`: the Fa in data set [6] amounted to 99%. Further, the Activity entry in data set [7] is “Non-Toxic”; in data set [9], “Dose-dependent effect”; in data set [10] it was “Dose-dependent effect”; in [12], “Dose-dependent effect”; in [13], 32%; in [18], 98%. Further, the Activity in data set [19] stood at 40%. For the same compound, the AUC/dose stood at 719 nM·h in data set [8] and 1080 nM·h in data set [22]. Further, the CLH in data set [1] turned out to be 36 µL/min/mg; in data set [14], 35 µL/min/mg; in data set [15], 20 µL/min/mg; in data set [2], 72 µL/min/mg. The Cmax/dose in data set [11] was 75 nM/(mg/kg). For the same compound, the half-life in data set [16] was 81 min; in data set [17], 39 min; in data set [21], 17 min; in data set [23] it was 108 min; in data set [5], 39 min; in [27], 40 min. In addition, in data set [4], the GI50 amounted to 11 nM. Also, the values for the time to peak (Tmax) in data set [20] and in data set [26] were 120 min and 180 min, respectively. In data set [24], this compound had a bioavailability of 67%. Besides, the TGI entry in data set [25] is “Dose-dependent effect”. The Vd in [28] was found to be 4.4 L/kg. Also, the clearance in data set [29] came to 32 mL/min/kg. The CLint in [3] was 35 µL/min/mg.

Regarding `COc1ncc(-c2nc3c(n2C(C)C)[C@@H](c2ccc(Cl)cc2C)N(c2cc(Cl)ccc2C)C3=O)c(OC)n1`, the 50% growth inhibitory concentration (GI50) in data set [4] came to 1000 nM. In addition, in data set [5], the half-life stood at 56 min. Moreover, the CLint in data set [3] is 25 µL/min/mg.

As to `COc1ccncc1-c1nc2c(n1C(C)C)[C@H](c1ccc(Cl)cc1C)N(c1cc(Cl)ccc1C)C2=O`, the concentration for 50% growth inhibition (GI50) in data set [4] amounted to 345 nM. This compound gave a half-life in data set [5] of 12 min. Also, in data set [3], the CLint was 117 µL/min/mg.

In [4], `COc1ccc(-c2nc3c(n2C(C)C)C(c2ccc(Cl)cc2C)N(c2cc(Cl)ccc2C)C3=O)c(OC)n1` (racemic) came in with a 50% growth inhibitory concentration (GI50) of 186 nM. In data set [5], the half-life was found to be 20 min. This compound came in with a CLint in data set [3] of 69 µL/min/mg.

In data set [4], `COc1cccc(F)c1-c1nc2c(n1C(C)C)C(c1ccc(Cl)cc1C)N(c1cc(Cl)ccc1C)C2=O` (racemic) returned a GI50 of 276 nM. The compound further showed a half-life in [5] of 3.3 min. In data set [3], this compound had a CLint of 450 µL/min/mg.

In [4], `COc1ccccc1-c1cc2c(n1C(C)C)C(c1ccc(Cl)cc1C)N(c1cc(Cl)ccc1C)C2=O` (configuration not stated) returned a GI50 of 216 nM.
